Patent US20230158179A1, “RADIOPHARMACEUTICAL CONJUGATE COMPOSITIONS AND USES THEREOF” (RayzeBio, Inc., priority 2020, published 2023)
Read-outs that look alike come from different tables or passages of the source. Numbered stars: 1 amine (or outer) side, 2 acyl side, 3 side chain; on linkers, the order of the positions; unused ones are H or OH. Bridge positions count the residues as written; N and C are the ends. Square brackets hold non-standard residues; d marks the D form. Peptide text beside a SMILES is read from it. Trp(6-Cl) = N[C@@H](Cc1c[nH]c2cc(Cl)ccc12)C(=O)O; Phe(3-Ph) = N[C@@H](Cc1cccc(-c2ccccc2)c1)C(=O)O; Bip = N[C@@H](Cc1ccc(-c2ccccc2)cc1)C(=O)O; Phe(3-Cl) = N[C@@H](Cc1cccc(Cl)c1)C(=O)O; γGlu = O=C(O)[C@H](CCC(=O)[*:2])N[*:1]; NMeY = CN[C@@H](Cc1ccc(O)cc1)C(=O)O; NMeF = CN[C@@H](Cc1ccccc1)C(=O)O; hPhe = N[C@@H](CCc1ccccc1)C(=O)O; 3Pal = N[C@@H](Cc1cccnc1)C(=O)O; Ahp(2) = CCCCC[C@H](N)C(=O)O; Cba = N[C@@H](CC1CCC1)C(=O)O; Chg = N[C@H](C(=O)O)C1CCCCC1; NMeA = CN[C@@H](C)C(=O)O; βAla = NCCC(=O)O; Sar = CNCC(=O)O

Assays:
FOLR1 = biological target: T1, FOLR1 (Homo sapiens, UniProt P15328); experiment: Peptide binding to FOLR1 (SPR, Biacore 8K); settings: FOLR1-Fc-Avi immobilized, 25° C., Langmuir 1:1 binding model
T1 construct: purchased AcroBiosystems F01-H82F9
Protocol: For analysis of peptide binding, a Biacore 8K instrument was used utilizing either a SA chip or a CAP chip. FOLR1-Fc-Avi (AcroBiosystems, F01-H82F9) was immobilized on the chip using streptavidin-biotin chemistry at 25° C. in PBS-P+ buffer (20 mM phosphate, 2.7 mM KCl, 137 mM NaCl, 0.05% Tween-20, pH 7.4) to a level of 500-2500 RU (dependent on the analyte molecular weight). A dilution series of peptides was prepared in this buffer with a final DMSO concentration of 1% with a top peptide concentration at 50 or 100 nM and 8 further 2-fold dilutions. The SPR analysis was run at 25° C. at a flow rate of 100 μL/min in PBS-P+ with 1% DMSO running buffer and with a 120 second association and 10,000 second dissociation using single cycle kinetics methodology. All data was analyzed using Biacore Insight Evaluation Software version 3.) Data was fitted using a Langmuir 1:1 binding model.
Kd values of peptides of the present disclosure are given in Table 8 below, where Kd 0 nM<A≤10 nM.

PSMA = biological target: T2, PSMA (Homo sapiens, UniProt Q04609); experiment: Peptide binding to PSMA (SPR, Biacore 8K); settings: His-Avi-PSMA immobilized, 25° C., Langmuir 1:1 binding model
T2 construct: purchased AcroBiosystems PSA-H82Qb
Protocol: For analysis of peptide binding, a Biacore 8K instrument was used utilizing a SA chip. His-Avi-PSMA (AcroBiosystems, PSA-H82Qb) was immobilized on the chip using streptavidin-biotin chemistry at 25° C. in HBS-P+ buffer (10 mM HEPES, 150 mM NaCl, 0.05% Tween-20, pH 7.4) to a level of 800-2200 RU (dependent on the analyte molecular weight). A dilution series of peptides was prepared in this buffer with a final DMSO concentration of 1% with a top peptide concentration between 10-100 nM and 8 further 2-fold dilutions. The SPR analysis was run at 25° C. at a flow rate of 100 μL/min in HBS-P+ with 1% DMSO running buffer and with a 120 second association and 10,000 second dissociation using single cycle kinetics methodology. All data was analyzed using Biacore Insight Evaluation Software version 3. Data was fitted using a Langmuir 1:1 binding model.

[1] = biological target: T3, Human Serum Albumin (HSA) (Homo sapiens, UniProt P02768); experiment: HSA-HPLC plasma protein binding (immobilized human serum albumin-HPLC); type: in vitro ADME; settings: HSA-HPLC method, room temperature, estimated from gradient retention times, read-out: % Bound to HSA at r.t.
T3 construct: purchased ChiralPAK HSA HPLC column, 50×4 mm
From the text: • HSA-HPLC method (measurement of drug protein binding by immobilized human serum albumin-HPLC). A 13-minute HPLC (Thermo Vanquish Horizon with Diode Array Detector) gradient method was used to determine the HSA (Human Serum Albumin) binding of novel compounds using a chemically bonded protein stationary phase (ChiralPAK HSA HPLC column, 50×4 mm). The HSA binding values were derived from the gradient retention times that were converted to the logarithm of the equilibrium constant using data from a calibration set of molecules. The % bound to plasma values for the calibrator compounds were converted to the linear free energy values using the following equation: LogK=log[% PPB/(101−% PPB)]. The logarithmic value of the gradient retention times from the experiment were plotted against the linearized values of the percent bound to plasma. The slope and the intercept were used to convert the retention times to linear free energy values (LogK), from which the estimated % protein binding was calculated using the following equation: % Binding=[(101·10^LogK)/(1+10^LogK)]. Aqueous mobile phase (A) was 50 mM ammonium acetate solution, ph7.4 and the organic mobile phase (B) was 2-propanol. […] Chromatograms were recorded at 280 nm by a diode array UV absorption detector. […]

Trop-2 = biological target: T4, Trop-2 (Homo sapiens, UniProt P09758); experiment: Conjugate binding to Trop-2 (BLI, GatorPrime); settings: biotinylated peptides immobilized, His-tagged Trop-2, 30° C., Langmuir 1:1 binding model
T4 construct: purchased AcroBiosystems TR2-H5223
T4 sequence (P09758 27-323): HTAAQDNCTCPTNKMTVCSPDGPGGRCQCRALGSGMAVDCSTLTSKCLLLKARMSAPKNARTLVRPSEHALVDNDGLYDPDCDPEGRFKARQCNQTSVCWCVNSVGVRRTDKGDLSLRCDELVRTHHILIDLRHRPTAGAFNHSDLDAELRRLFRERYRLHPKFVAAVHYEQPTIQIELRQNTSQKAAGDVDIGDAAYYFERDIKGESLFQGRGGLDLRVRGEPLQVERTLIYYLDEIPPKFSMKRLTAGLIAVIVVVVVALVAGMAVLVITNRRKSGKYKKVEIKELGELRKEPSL
Protocol: For analysis of peptide binding, a GatorPrime instrument was used utilizing SMAP probes. Biotinylated peptides of 1 μM were immobilized on the sensor using streptavidin-biotin chemistry at 25° C. in HBS-P+ buffer (10 mM HEPES, 150 mM NaCl, 0.05% Tween-20, pH 7.4). A dilution series of His-tagged Trop-2 (AcroBiosystems, TR2-H5223) was prepared in this buffer with a top peptide concentration at 100 nM and 6 further 3-fold dilutions. The BLI analysis was run at 30° C. with a 120 second association and 120 second dissociation. All data was analyzed using GatorLaunch software. Data was fitted using a Langmuir 1:1 binding model.

[2] = test system: PSMA expressing cells (LnCap); experiment: FACS binding to PSMA expressing cells; type: cell-based; settings: biotinylated compounds
Protocol: LnCap cells, 2e^6 cells/ml
SYTOX viability dye • (1) Washed cells with PBS once. • (2) Incubated cells with 5 ml of Accutase at 37 degrees for 2-5 minutes. Gently rocking the flask until the layer of cells pilling off • (3) Added 15 ml of PBS into flask and transferred to a 50 ml conical tube • (4) Spun down 1600 rpm 3 minutes • (5) Resuspended in 2 ml of PBS, and counted cells • (6) Adjusted cell density to 2e6 cells/ml with PBS and then added 100 uL/well to the plate and mixed well • (7) Spun down 1600 rpm 3 minutes • (8) Add 100 uL of compound/well respectively. Prepared serial dilute compound in PBS, 1 uM to 0.01 nM, 1:3 dilution, 10 point curve • (9) Incubated for 50 minutes total • (10) Washed wells with 150 uL PBS and spun down 1600 rpm 3 min and dumped • (11) Added SA-A647, 1:1000 dilution in FACS buffer, 100 ul/well to respective wells • (12) Incubated for 50 min on ice • (13) Washed with 200 uL PBS spun 1600 rpm 3 min dump • (14) Resuspended in 100 uL SYTOX, 1:1000 dilution in FACS buffer • (15) Acquired

T1 sequence (P15328 25-234): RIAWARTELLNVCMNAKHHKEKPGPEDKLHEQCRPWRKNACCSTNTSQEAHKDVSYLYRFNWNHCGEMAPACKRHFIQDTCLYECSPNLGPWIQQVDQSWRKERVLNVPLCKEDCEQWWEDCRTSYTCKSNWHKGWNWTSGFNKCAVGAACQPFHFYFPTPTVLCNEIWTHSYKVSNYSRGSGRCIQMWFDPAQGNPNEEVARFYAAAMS
T3 sequence (P02768 25-609): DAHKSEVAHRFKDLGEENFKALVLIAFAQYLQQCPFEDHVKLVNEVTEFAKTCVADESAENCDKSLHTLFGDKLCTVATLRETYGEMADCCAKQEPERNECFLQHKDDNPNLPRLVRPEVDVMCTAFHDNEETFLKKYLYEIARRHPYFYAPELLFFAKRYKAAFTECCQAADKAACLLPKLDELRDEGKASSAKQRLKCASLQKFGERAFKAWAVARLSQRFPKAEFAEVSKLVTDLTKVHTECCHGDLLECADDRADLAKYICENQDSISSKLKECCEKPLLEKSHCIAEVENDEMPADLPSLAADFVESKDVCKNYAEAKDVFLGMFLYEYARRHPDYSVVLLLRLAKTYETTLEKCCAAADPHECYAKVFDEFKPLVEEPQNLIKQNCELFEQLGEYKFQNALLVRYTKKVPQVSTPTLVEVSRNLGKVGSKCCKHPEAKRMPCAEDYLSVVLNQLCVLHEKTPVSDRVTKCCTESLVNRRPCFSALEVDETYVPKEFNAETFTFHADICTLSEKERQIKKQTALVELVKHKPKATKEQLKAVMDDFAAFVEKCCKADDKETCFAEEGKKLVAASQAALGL
T2 sequence (Q04609 whole entry): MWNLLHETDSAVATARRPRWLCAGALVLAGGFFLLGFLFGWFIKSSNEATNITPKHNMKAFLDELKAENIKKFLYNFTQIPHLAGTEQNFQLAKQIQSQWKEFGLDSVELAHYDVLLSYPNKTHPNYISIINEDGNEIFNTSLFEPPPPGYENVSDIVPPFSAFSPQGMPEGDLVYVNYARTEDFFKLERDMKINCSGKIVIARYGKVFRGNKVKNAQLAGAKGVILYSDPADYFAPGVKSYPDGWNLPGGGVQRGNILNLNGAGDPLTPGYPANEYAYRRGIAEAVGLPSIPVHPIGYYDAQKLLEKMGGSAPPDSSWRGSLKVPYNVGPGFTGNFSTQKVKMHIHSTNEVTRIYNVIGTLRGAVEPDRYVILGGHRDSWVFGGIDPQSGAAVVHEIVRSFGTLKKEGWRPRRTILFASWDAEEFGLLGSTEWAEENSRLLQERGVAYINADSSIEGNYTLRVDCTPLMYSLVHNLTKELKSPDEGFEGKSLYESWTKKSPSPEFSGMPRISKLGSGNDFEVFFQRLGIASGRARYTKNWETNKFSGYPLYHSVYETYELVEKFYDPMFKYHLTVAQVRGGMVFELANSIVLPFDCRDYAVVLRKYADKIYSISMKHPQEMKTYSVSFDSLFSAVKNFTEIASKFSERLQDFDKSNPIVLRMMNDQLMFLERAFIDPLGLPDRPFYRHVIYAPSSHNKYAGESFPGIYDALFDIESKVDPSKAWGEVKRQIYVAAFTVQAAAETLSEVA

Compound: CC(C)C[C@@H]1NC(=O)[C@H](CCCNC(=N)N)NC(=O)[C@H](C)NC(=O)CSC[C@@H](C(N)=O)NC(=O)[C@H](Cc2ccc(O)cc2)NC(=O)[C@H](Cc2c[nH]c3ccccc23)NC(=O)[C@H](Cc2ccc(O)cc2)N(C)C(=O)[C@H](Cc2ccc(O)cc2)N(C)C(=O)[C@H]([C@@H](C)O)NC(=O)[C@H](CC(=O)O)NC(=O)[C@H](Cc2ccc(O)cc2)NC(=O)[C@H](CC(=O)O)NC(=O)[C@H](Cc2ccccc2)N(C)C1=O [Compound P-10] ({CH2CO}-ARL[NMeF]DYDT[NMeY][NMeY]WYC-NH2; thioether N-13)
- Kd (FOLR1): < 10 nM

Compound: C[C@@H](O)[C@@H]1NC(=O)[C@H](CC(=O)O)NC(=O)[C@H](Cc2cccc(Cl)c2)NC(=O)[C@H](CC(=O)O)NC(=O)[C@H](Cc2ccccc2)N(C)C(=O)[C@H](C2CCCCC2)NC(=O)[C@H](CCCNC(=N)N)NC(=O)[C@H](CC(=O)O)NC(=O)CSC[C@@H](C(N)=O)NC(=O)[C@H](Cc2ccc(O)cc2)NC(=O)[C@H](Cc2c[nH]c3ccccc23)NC(=O)[C@H](Cc2ccc(O)cc2)N(C)C(=O)[C@H](Cc2ccc(O)cc2)N(C)C1=O [Compound P-11] ({CH2CO}-DR[Chg][NMeF]D[Phe(3-Cl)]DT[NMeY][NMeY]WYC-NH2; thioether N-13)
- Kd (FOLR1): < 10 nM

Compound: C[C@@H](O)[C@@H]1NC(=O)[C@H](CC(=O)O)NC(=O)[C@H](Cc2ccc(O)cc2)NC(=O)[C@H](CC(=O)O)NC(=O)[C@H](Cc2ccccc2)N(C)C(=O)[C@H](C2CCCCC2)NC(=O)[C@H](CCCNC(=N)N)NC(=O)[C@H](CC(=O)O)NC(=O)CSC[C@@H](C(N)=O)NC(=O)[C@H](Cc2ccc(O)cc2)NC(=O)[C@H](Cc2c[nH]c3ccccc23)NC(=O)[C@H](Cc2ccc(O)cc2)N(C)C(=O)[C@H](Cc2ccc(O)cc2)N(C)C1=O [Compound P-12] ({CH2CO}-DR[Chg][NMeF]DYDT[NMeY][NMeY]WYC-NH2; thioether N-13)
- Kd (FOLR1): < 10 nM

Compound: CC(C)[C@@H]1NC(=O)[C@H](CC(=O)O)NC(=O)[C@H](Cc2cccc(-c3ccccc3)c2)NC(=O)[C@H](Cc2c[nH]c3ccccc23)NC(=O)CSC[C@@H](C(N)=O)NC(=O)[C@H](CC(=O)O)NC(=O)[C@H](Cc2cccc(-c3ccccc3)c2)NC(=O)[C@H](Cc2c[nH]c3ccccc23)NC(=O)[C@H](CC2CCC2)NC(=O)[C@H](CC(=O)O)NC(=O)[C@H](CO)NC(=O)[C@H](CC(=O)O)NC1=O [Compound P-21] ({CH2CO}-W[Phe(3-Ph)]DVDSD[Cba]W[Phe(3-Ph)]DC-NH2; thioether N-12)
- Kd (PSMA): < 10 nM

Compound: CC[C@H](C)[C@@H]1NC(=O)[C@H](Cc2cccnc2)NC(=O)[C@@H](Cc2ccccc2)NC(=O)CSC[C@@H](C(N)=O)NC(=O)[C@H]([C@@H](C)CC)NC(=O)[C@H]([C@@H](C)CC)NC(=O)[C@H](Cc2ccccc2)NC(=O)[C@H](Cc2ccc(O)cc2)N(C)C(=O)[C@H](CC(=O)O)NC(=O)[C@H](CO)NC(=O)[C@H](C)N(C)C(=O)[C@H](C)N(C)C(=O)[C@H](Cc2cccnc2)NC(=O)[C@H](CC(C)C)NC1=O [Compound P-30] ({CH2CO}-[dF][3Pal]IL[3Pal][NMeA][NMeA]SD[NMeY]FIIC-NH2; thioether N-14)
- fraction unbound ([1]; plasma): 0.1 to 0.3

Compound: CCCCC[C@@H]1NC(=O)CN(C)C(=O)[C@H](C(C)C)NC(=O)[C@H](Cc2c[nH]c3cc(Cl)ccc23)NC(=O)CNC(=O)[C@H]([C@@H](C)O)NC(=O)[C@H](Cc2ccccc2)N(C)C(=O)CNC(=O)[C@H](CCCNC(=N)N)NC(=O)[C@H](Cc2ccc(O)cc2)NC(=O)[C@H](Cc2cccc(Cl)c2)NC(=O)[C@H](C(C)C)NC(=O)[C@H](C)NC(=O)CSC[C@@H](C(N)=O)NC1=O [Compound P-31] ({CH2CO}-AV[Phe(3-Cl)]YRG[NMeF]TG[Trp(6-Cl)]V[Sar][Ahp(2)]C-NH2; thioether N-14)
- fraction unbound [1]: 0.1 to 0.3

Compound: C-40: "Conjugate C-40 contains a monocyclic peptide P-40 of Table 3"; made from peptide-3 and DOTA-OSu ([dA]D[Bip]IYPA[Bip]SSES[NMeF]C[βAla][dK](PEG‑DOTA)[γGlu][γGlu]-NH2; bridge N-14; not fully specified (bridges)) [Compound C-40]
- Kd (Trop-2): 10 to 1000 nM

Compound: P-22 ([NMeF]DDSVWD[hPhe]YC-NH2; bridge N-10; not fully specified (N-terminus, bridges)) [Compound P-22]
- EC50 [2]: 100 to 1000 nM
